Reference: patent US20230250096A1, “SUBSTITUTED PHENYL-1H-PYRROLO[2,3-c] PYRIDINE DERIVATIVES” (Janssen Pharmaceutica NV, priority 2021, published 2023)
Read-outs that look alike come from different tables or passages of the source.

What was measured:
Format in all cases: cell-based, human
[1] = system: MEIS1 mRNA expression; experiment: MEIS1 mRNA expression assay (Quantigene Singleplex) in MOLM14 cells; conditions: 48 hours incubation
Method in brief: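 Read-out: MEIS1 transcript counts, background-subtracted and divided by RPL28, expressed as fold change over DMSO-treated cells, then dose-response modelled for IC50. MOLM14 cells (3,750/well) received graded compound for 48 h before lysis and QuantiGene hybridization at 55 °C.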

[2] = system: MOLM14 cells; experiment: Proliferation assay (spheroid confluence, 8 days), MOLM14; conditions: read-out: spheroid assay_MOLM14 IC50
Method in brief: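 Absolute IC50 derived from spheroid confluence imaged on day 8, scaled between DMSO (0%) and a cytotoxic low control such as 1 μM staurosporin, fitted with variable slope, bounds fixed at 0 and 100%. Seeding 200 cells/well (300 for KO-52), ultra-low attachment plates, 0.3% DMSO, 37° C.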

[3] = system: KO-52 cells; experiment: Proliferation assay (spheroid confluence, 8 days), KO-52 control cell line; conditions: read-out: spheroid assay_KO-52 IC50
Procedure: The anti-proliferative effect of menin/MLL protein/protein interaction inhibitor test compounds was assessed in human leukemia cell lines. The cell line MOLM14 harbors a MLL translocation and expresses the MLL fusion protein MLL-AF9, respectively, as well as the wildtype protein from the second allele. OCI-AML3 cells that carry the NPM1c gene mutation were also tested. […] KO-52 was used as a control cell line containing two MLL (KMT2A) wildtype alleles in order to exclude compounds that display general cytotoxic effects.
MOLM14 cells were cultured in RPMI-1640 (Sigma Aldrich) supplemented with 10% heat-inactivated fetal bovine serum (HyClone), 2 mM L-glutamine (Sigma Aldrich) and 50 μg/ml gentamycin (Gibco). KO-52 and OCI-AML3 cell lines were propagated in alpha-MEM (Sigma Aldrich) supplemented with 20% heat-inactivated fetal bovine serum (HyClone), 2 mM L-glutamine (Sigma Aldrich) and 50 μg/ml gentamycin (Gibco).
In order to assess the anti-proliferative effects, 200 MOLM14 cells, 200 OCI-AML3 cells or 300 KO-52 cells were seeded in 200 μl media per well in 96-well round bottom, ultra-low attachment plates (Costar, catalogue number 7007). Cell seeding numbers were chosen based on growth curves to ensure linear growth throughout the experiment. Test compounds were added at different concentrations and the DMSO content was normalized to 0.3%. Cells were incubated for 8 days at 37° C. and 5% CO2. Spheroid like growth was measured in real-time by live-cell imaging (IncuCyteZOOM, Essenbio, 4×objective) acquiring images at day 8. Confluence (%) as a measure of spheroid size was determined using an integrated analysis tool.
In order to determine the effect of the test compounds over time, the confluence in each well as a measure of spheroid size, was calculated. Confluence of the highest dose of a reference compound was used as baseline for the LC (Low control) and the confluence of DMSO treated cells was used as 0% cytotoxicity (High Control, HC).
Absolute IC50 values were calculated as percent change in confluence as follows:
LC=Low Control: cells treated with e.g. 1 μM of the cytotoxic agent staurosporin, or e.g. cells treated with a high concentration of an alternative reference compound
HC=High Control: Mean confluence (%) (DMSO treated cells)
% Effect=100−(100*(Sample−LC)/(HC−LC))
GraphPad Prism (version 7.00) was used to calculate the IC50. Dose-response equation was used for the plot of % Effect vs Log10 compound concentration with a variable slope and fixing the maximum to 100% and the minimum to 0%.

SMILES	IC50 ([1]; Homo sapiens, MOLM-14, 48 h)	IC50 ([2]; Homo sapiens, MOLM-14, MOLM14)	IC50 ([3]; Homo sapiens)	IC50 [1]	IC50 ([2]; MOLM14)	IC50 [3]
Cc1cncc2c1c(CC1CN(C[C@@H]3CCOC3)C1)cn2-c1ccc(F)cc1C(=O)N(C)C(C)C (single isomer, unassigned) [Compound 191b]	41 nM	33 nM	7000 nM			
COCCN(C)CCCC(C(C)C)N1CC[C@H](Cc2cn(-c3ccc(F)cc3C(=O)N(C)C(C)C)c3cncc(Cl)c23)C1 (stereo partly drawn) [Compound 4]	11 nM	5 nM	3000 nM			
Cc1cncc2c1c(C[C@@H]1CCN(C[C@@H]3CCNC(=O)CC3)C1)cn2-c1ccc(F)cc1C(=O)N1[C@H](C)CC[C@H]1C (single isomer, unassigned) [Compound 352b]	266 nM	140 nM	> 15000 nM			
Cc1cncc2c1c(C[C@@H]1CCN(CC3CCC(O)CC3)C1)cn2-c1ccc(F)cc1C(=O)N(C)C(C)C (single isomer, unassigned) [Compound 205b]				31 nM	25 nM	3200 nM
COCCN(C)CCC[C@@H](C(C)C)N1CC[C@H](Cc2cn(-c3ccc(F)cc3C(=O)N(C)C(C)C)c3cncc(Cl)c23)C1 (single isomer, unassigned) [Compound 4b]	6 nM	3 nM	500 nM			
COCCN(C)CCCC(C(C)C)N1CC[C@H](Cc2cn(-c3ccc(F)cc3C(=O)N(C)C(C)C)c3cncc(C)c23)C1 (single isomer, unassigned) [Compound 2]	3 nM	1 nM	> 15000 nM			
CC(=O)N1CC2CC(C1)C2N1CC[C@H](Cc2cn(-c3ccc(F)cc3C(=O)N(C)C(C)C)c3cncc(C)c23)C1 (stereo partly drawn) [Compound 208]	281 nM	224 nM	> 15000 nM			
Cc1cncc2c1c(C[C@@H]1CCN(C[C@H]3CCOC3)C1)cn2-c1ccc(F)cc1C(=O)N(C)C(C)C (single isomer, unassigned) [Compound 190a]	113 nM	40 nM	10000 nM			
CC(=O)N1CCN(CCCC(C(C)C)N2CCC(Cc3cn(-c4ccc(F)cc4C(=O)N(C)C(C)C)c4cncc(C)c34)C2)CC1 (single isomer, unassigned) [Compound 9a]	6 nM	2 nM	600 nM			
Cc1cncc2c1c(CC1CN(CC3CCC(O)CC3)C1)cn2-c1ccc(F)cc1C(=O)N(C)C(C)C (stereo not drawn) [Compound 144]	11 nM	11 nM	6500 nM			
CNC(=O)[C@H]1CC[C@@H](CN2CC[C@@H](Cc3cn(-c4ccc(F)cc4C(=O)N(C)C(C)C)c4cncc(C)c34)C2)CC1 [Compound 185]	44 nM	23 nM	11000 nM			
CNC(=O)c1cncc(N2CCC(N3CC(Cc4cn(-c5ccc(F)cc5C(=O)N(C)C(C)C)c5cncc(C)c45)C3)CC2)n1 [Compound 75]	119 nM	9 nM	2000 nM			
CC(=O)N1CCC(CN2CC[C@@H](Cc3cn(-c4ccc(F)cc4C(=O)N4CCC[C@@H]4C)c4cncc(C)c34)C2)CC1 [Compound 319]	240 nM	139 nM	> 15000 nM			
CN=S(=O)(c1cc(F)ccc1-n1cc(CC2CCN(CC3CCOCC3)C2)c2c(C)cncc21)C(C)C (single isomer, unassigned) [Compound 77b]				132 nM	81 nM	1900 nM
Cc1cncc2c1c(C[C@@H]1CCN(C[C@H]3CC[C@@H](C(=O)N4CCC4)CC3)C1)cn2-c1ccc(F)cc1C(=O)N(C)C(C)C [Compound 178]	14 nM	12 nM	2900 nM			
Cc1cncc2c1c(CC1CN(CC3CCOCC3)C1)cn2-c1ccc(F)cc1C(=O)N(CCO)C(C)C [Compound 281]	13 nM	10 nM	4200 nM			
CN=[S@](=O)(c1cc(F)ccc1-n1cc(C[C@@H]2CCN(CC3CCN(C(C)=O)CC3)C2)c2c(C)cncc21)C(C)C (single isomer, unassigned) [Compound 128a]	258 nM	676 nM	7700 nM			
CON(C)C(=O)N1CCC(CN2CCC(Cc3cn(-c4ccc(F)cc4C(=O)N(C)C(C)C)c4cncc(C)c34)CC2)CC1 [Compound 203]	43 nM	12 nM	2900 nM			
COC(=O)[C@H]1CC[C@@H](CN2CC[C@@H](Cc3cn(-c4ccc(F)cc4C(=O)N(C)C(C)C)c4cncc(C)c34)C2)CC1 [Compound 153]	77 nM	35 nM	7900 nM			
Cc1cncc2c1c(CC1CCN(CC3CCN(C(=O)C(C)(C)O)CC3)C1)cn2-c1ccc(F)cc1C(=O)N(C)C(C)C (single isomer, unassigned) [Compound 125]	16 nM	11 nM	7000 nM			
Cc1cncc2c1c(C[C@@H]1CCN(CC3CCN(C(N)=O)CC3)C1)cn2-c1ccc(F)cc1C(=O)N(C)C(C)C [Compound 207]	29 nM	16 nM	14300 nM			
Cc1cncc2c1c(C[C@@H]1CCN(CC3CCC(O)CC3)C1)cn2-c1ccc(F)cc1C(=O)N(C)C(C)C (stereo partly drawn) [Compound 205]	19 nM	19 nM	2500 nM			
Cc1cncc2c1c(C[C@@H]1CCN(CC3CCNC(=O)CC3)C1)cn2-c1ccc(F)cc1C(=O)N(C)C(C)C (mixture of isomers) [Compound 169]	71 nM	16 nM	10000 nM			
CCC([C@H]1C[C@@H](N2CCN(C(C)=O)CC2)C1)N1CC[C@@H](Cc2cn(-c3ccc(F)cc3C(=O)N(C)C(C)C)c3cncc(C)c23)C1 (mixture of isomers) [Compound 24]	71 nM	13 nM	8500 nM			
Cc1cncc2c1c(C[C@@H]1CCN(CC3CCNC(=O)CC3)C1)cn2-c1ccc(F)cc1C(=O)N1CCC[C@H]1C (single isomer, unassigned) [Compound 353a]		6 nM	> 15000 nM	12 nM		
Cc1cncc2c1c(C[C@@H]1CCN([C@H](C)C3CCOCC3)C1)cn2-c1ccc(F)cc1[S@](=N)(=O)C(C)C (single isomer, unassigned) [Compound 180a]	117 nM	39 nM	7200 nM			
Cc1cncc2c1c(CC1CCN(CC3CCC(=O)N(C)CC3)C1)cn2-c1ccc(F)cc1C(=O)N(C)C(C)C (single isomer, unassigned) [Compound 184a]			> 15000 nM	23 nM	13 nM	
